For one experiment, the target named is T1, SMARCA4 (Homo sapiens, UniProt P51532).
T1 construct: SMARCA4-HiBiT knock-in Hela monoclonal cell (CS3023226) were purchased from Promega; host or cells: HeLa (CRISPR HiBiT knock-in monoclonal line, heterozygous)
The experiment in a line: SMARCA4 HiBiT degradation assay in HeLa cells. It is filed as cell-based. Particulars: 18 hours; for Dmax: HeLa. On the procedure: (§1) Example A. SMARCA2 HiBiT and SMARCA4 HiBiT Degradation Assay
(§2) Preparation of SMARCA2/4-HiBiT Knock-In Cells
(§3) HiBiT peptide knock-in of SMARCA2 in LgBiT expressing HEK293T cells was performed by CRISPR-mediated tagging system as described Promega. The homozygous HiBiT knock-in on c-terminus SMARCA2 was confirmed by sanger sequence. SMARCA2-HiBiT knock-in Hela monoclonal cell (CS302366) and SMARCA4-HiBiT knock-in Hela monoclonal cell (CS3023226) were purchased from Promega. The heterozygous HiBiT-knock-in was confirmed by sanger sequence in both SMARCA2-HiBiT and SMARCA4-HiBiT monoclonal cells.
(§4) SMARCA2 HiBiT and SMARCA4 HiBiT Degradation Assay in HeLa Cells
(§5) Compounds were dissolved in DMSO to make 10 mM stock and 3-fold series dilutions were further conducted keeping the highest concentration 10 μM. NCIH1693 and NCIH520 cells were maintained in PRMI 1640 medium (Corning Cellgro, Catalog #:10-040-CV) supplemented with 10% v/v FBS (GE Healthcare, Catalog #: SH30910.03) by splitting 1:3 twice a week.
(§6) Dispense 10 ul aliquot of prepared Hela-SMARCA2-HiBiT or Hela-SMARCA4-HiBiT cells (1:1 ratio of cells:Trypan Blue (#1450013, Bio-Rad)) onto cell counting slide (#145-0011, Bio-Rad) and obtain cell density and cell viability using cell counter (TC20, Bio-Rad). Remove appropriate volume of resuspended cells from culture flask to accommodate 2500 cells/well @ 20 μL/well. Transfer Hela-HiBiT cells to 50 mL conical (#430290, Corning). Spin down at 1000 rpm for 5 min using tabletop centrifuge (SPINCHRON 15, Beckman). Discard supernatant and resuspend cell pellet in modified EMEM (#30-2003, ATCC) cell culture media containing 10% FBS (F2422-500ML, Sigma), and 1X Penicillin/Streptomycin (200 g/L) (30-002-CI, Corning) to a cell density of 125,000 cells/mL. Dispense 20 μL of resuspended Hela-HiBit cells per well in 384-well TC treated plate (#12-565-343, Thermo Scientific) using standard cassette (#50950372, Thermo Scientific) on Multidrop Combi (#5840310, Thermo Scientific) inside laminar flow cabinet. Dispense test compounds onto plates using digital liquid dispenser (D300E, Tecan). Incubate plates in humidified tissue culture incubator @37° C. for 18 hours. Add 20 μL of prepared Nano-Glo® HiBiT Lytic detection buffer (N3050, Promega) to each well of 384-well plate using small tube cassette (#24073295, Thermo Scientific) on Multidrop Combi, incubate @ RT for 30-60 min. Read plates on microplate reader (Envision 2105, PerkinElmer) using 384 well Ultra-Sensitive luminescence mode. Raw data files and compound information reports are swept into centralized data lake and deconvoluted using automated scripts designed by TetraScience, Inc. Data analysis, curve-fitting and reporting done in Dotmatics Informatics Suite using Screening Ultra module.
On the technique in general: With HiBiT, luminescence reflects the tagged protein that the partner subunit can reach.

In a further experiment the target is T2, SMARCA2 (Homo sapiens, UniProt P51531).
T2 construct: SMARCA2-HiBiT knock-in Hela monoclonal cell (CS302366); host or cells: HeLa (CRISPR HiBiT knock-in monoclonal line, heterozygous)
Put plainly: SMARCA2 HiBiT degradation assay in HeLa cells. It is filed as cell-based. Particulars: 18 hours; for DC50: read-out: SMARCA2 IC50; for Dmax: HeLa. As to the method: as §1, §2, §3, §4, §5, §6

Data on 13 compounds can be found in patent publication US20230365576A1, “BRM Targeting Compounds And Associated Methods Of Use” (Prelude Therapeutics Incorporated, priority 2022, published 2023).

Each structure is given as a SMILES string. Where only a bound is given, the exact number is not on record here.

T1 sequence (P51532 whole entry): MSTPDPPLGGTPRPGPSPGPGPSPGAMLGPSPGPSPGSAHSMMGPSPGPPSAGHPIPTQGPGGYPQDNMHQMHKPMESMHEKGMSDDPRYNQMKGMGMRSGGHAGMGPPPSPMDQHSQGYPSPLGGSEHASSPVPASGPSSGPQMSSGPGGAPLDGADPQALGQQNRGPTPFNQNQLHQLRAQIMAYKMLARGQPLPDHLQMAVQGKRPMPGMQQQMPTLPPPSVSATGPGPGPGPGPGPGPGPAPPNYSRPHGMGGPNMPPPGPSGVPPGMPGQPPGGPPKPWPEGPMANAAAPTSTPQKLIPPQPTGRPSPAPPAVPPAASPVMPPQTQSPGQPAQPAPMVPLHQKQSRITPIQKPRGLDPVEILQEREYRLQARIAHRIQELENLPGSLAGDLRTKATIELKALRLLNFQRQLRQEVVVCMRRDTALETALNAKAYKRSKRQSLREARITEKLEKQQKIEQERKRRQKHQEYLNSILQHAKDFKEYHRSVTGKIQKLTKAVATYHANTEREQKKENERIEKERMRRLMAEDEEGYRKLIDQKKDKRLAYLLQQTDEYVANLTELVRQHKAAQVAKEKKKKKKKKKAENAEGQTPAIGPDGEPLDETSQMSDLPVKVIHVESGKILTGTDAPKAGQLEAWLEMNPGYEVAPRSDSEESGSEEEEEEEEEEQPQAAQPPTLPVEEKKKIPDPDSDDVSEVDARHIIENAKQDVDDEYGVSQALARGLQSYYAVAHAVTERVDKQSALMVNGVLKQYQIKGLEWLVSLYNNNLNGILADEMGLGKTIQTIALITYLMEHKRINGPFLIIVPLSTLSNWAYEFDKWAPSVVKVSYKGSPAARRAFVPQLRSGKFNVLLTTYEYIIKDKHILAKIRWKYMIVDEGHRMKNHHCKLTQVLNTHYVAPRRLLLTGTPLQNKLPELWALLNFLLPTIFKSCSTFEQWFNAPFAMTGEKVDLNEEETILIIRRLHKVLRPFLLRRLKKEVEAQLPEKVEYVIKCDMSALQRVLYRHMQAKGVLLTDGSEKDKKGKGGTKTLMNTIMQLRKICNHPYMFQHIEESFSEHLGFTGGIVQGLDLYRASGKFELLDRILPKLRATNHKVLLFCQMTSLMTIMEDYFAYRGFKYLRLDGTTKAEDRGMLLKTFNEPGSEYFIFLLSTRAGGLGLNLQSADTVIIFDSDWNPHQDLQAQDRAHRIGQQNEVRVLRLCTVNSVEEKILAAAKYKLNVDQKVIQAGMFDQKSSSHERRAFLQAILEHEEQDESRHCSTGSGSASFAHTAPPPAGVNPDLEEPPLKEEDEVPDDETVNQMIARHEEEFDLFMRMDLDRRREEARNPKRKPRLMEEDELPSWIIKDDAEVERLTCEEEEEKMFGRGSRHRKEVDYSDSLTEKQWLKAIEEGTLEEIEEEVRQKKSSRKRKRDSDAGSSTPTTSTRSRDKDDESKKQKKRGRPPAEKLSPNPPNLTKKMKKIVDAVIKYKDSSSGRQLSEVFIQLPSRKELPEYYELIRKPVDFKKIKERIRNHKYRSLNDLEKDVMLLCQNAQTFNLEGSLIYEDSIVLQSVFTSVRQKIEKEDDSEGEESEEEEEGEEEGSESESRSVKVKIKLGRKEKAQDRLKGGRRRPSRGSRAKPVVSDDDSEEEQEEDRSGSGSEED
T2 sequence (P51531 whole entry): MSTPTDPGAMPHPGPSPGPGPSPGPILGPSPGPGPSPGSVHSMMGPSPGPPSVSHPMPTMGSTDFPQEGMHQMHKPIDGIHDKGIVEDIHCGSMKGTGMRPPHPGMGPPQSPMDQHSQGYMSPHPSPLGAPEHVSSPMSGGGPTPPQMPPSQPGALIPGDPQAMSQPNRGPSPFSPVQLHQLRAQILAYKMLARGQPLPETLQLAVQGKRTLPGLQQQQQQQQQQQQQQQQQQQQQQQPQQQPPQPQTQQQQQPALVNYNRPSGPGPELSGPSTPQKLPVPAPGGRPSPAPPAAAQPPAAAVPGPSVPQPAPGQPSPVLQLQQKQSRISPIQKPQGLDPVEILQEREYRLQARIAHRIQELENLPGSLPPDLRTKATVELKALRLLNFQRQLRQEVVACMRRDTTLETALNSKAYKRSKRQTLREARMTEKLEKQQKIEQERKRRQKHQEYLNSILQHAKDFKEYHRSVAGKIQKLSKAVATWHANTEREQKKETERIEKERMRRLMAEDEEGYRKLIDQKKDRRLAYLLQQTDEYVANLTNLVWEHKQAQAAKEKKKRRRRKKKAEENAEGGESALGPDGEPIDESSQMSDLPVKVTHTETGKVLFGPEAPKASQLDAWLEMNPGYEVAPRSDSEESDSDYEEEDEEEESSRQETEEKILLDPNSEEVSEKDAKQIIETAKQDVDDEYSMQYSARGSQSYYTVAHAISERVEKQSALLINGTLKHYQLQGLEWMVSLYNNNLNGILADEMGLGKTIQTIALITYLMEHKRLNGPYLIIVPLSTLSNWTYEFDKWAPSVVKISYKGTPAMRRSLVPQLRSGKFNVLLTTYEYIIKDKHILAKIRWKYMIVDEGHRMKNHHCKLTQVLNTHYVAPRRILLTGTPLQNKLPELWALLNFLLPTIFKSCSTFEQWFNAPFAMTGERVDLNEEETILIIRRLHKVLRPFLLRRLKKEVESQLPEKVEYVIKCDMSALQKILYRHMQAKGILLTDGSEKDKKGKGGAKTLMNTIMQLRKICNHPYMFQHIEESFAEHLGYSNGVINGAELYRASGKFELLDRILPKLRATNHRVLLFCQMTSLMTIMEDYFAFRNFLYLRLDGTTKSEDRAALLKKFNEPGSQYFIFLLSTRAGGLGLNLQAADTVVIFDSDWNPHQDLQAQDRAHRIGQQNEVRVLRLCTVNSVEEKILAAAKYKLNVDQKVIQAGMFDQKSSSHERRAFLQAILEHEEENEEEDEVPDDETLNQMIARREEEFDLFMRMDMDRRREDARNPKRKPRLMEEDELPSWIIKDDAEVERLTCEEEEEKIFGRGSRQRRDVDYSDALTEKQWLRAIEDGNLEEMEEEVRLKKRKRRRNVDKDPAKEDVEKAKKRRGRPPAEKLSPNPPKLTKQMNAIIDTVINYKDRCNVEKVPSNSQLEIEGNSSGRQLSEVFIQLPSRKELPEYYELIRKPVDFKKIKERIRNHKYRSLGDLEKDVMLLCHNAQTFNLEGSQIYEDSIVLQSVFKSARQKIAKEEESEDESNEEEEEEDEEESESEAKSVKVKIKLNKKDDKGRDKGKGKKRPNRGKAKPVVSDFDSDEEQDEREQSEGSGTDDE

A word on the Dmax: it is the greatest extent of degradation seen. As to `C[C@H]1CN2c3cc(-c4cccc(F)c4O)nnc3NC[C@H]2CN1C(=O)N1CCN(CC2CCN(c3ccc4c(c3)C(=O)N(C3CCC(=O)NC3=O)C4)CC2)CC1(C)C` (stereo partly drawn) [Example 4, 3-(6-(4-((4-((6aS,9S)-2-(3-fluoro-2-hydroxyphenyl)-9-methyl-6,6a,7,8,9,10-hexahydro-5H-pyrazino[1′,2′:4,5]pyrazino[2,3-c]pyridazine-8-carbonyl)-3,3-dimethylpiperazin-1-yl)methyl)piperidin-1-yl)-1-oxoisoindolin-2-yl)piperidine-2,6-dione], the DC50 on SMARCA4 and at SMARCA2 was less than 100 nM throughout. Also, the Dmax on SMARCA4 was less than 50%; on SMARCA2 it was more than 75%.

At SMARCA4, `C[C@@H]1CN(CC2CN(c3ccc4c(c3)C(=O)N(C3CCC(=O)NC3=O)C4)C2)C[C@H](C)N1C(=O)N1C[C@@H]2CNc3nnc(-c4cc(F)cc(F)c4O)cc3N2C[C@@H]1C` (stereo partly drawn) [Example 24, 3-(6-(3-(((3S,5R)-4-((6aS,9S)-2-(3,5-difluoro-2-hydroxyphenyl)-9-methyl-6,6a,7,8,9,10-hexahydro-5H-pyrazino[1′,2′:4,5]pyrazino[2,3-c]pyridazine-8-carbonyl)-3,5-dimethylpiperazin-1-yl)methyl)azetidin-1-yl)-1-oxoisoindolin-2-yl)piperidine-2,6-dione] gave a DC50 of more than 1000 nM and a Dmax of less than 50%. At SMARCA2, the DC50 was less than 100 nM and the Dmax was more than 75%.

As to `O=C1CCC(N2Cc3ccc(N4CCN(C[C@H]5CC[C@@H](CN6CCN7c8cc(-c9cc(F)cc(F)c9O)nnc8NC[C@H]7C6)CC5)CC4)cc3C2=O)C(=O)N1` (stereo partly drawn) [Example 56, 3-(6-(4-(((1R,4s)-4-(((S)-2-(3,5-difluoro-2-hydroxyphenyl)-5,6,6a,7,9,10-hexahydro-8H-pyrazino[1′,2′:4,5]pyrazino[2,3-c]pyridazin-8-yl)methyl)cyclohexyl)methyl)piperazin-1-yl)-1-oxoisoindolin-2-yl)piperidine-2,6-dione], on SMARCA4, the DC50 was less than 100 nM and the Dmax was more than 75%. In addition, on SMARCA2, the DC50 is less than 100 nM and the Dmax is more than 75%.

For the compound `CCC12CNc3nnc(-c4cccc(Cl)c4O)cc3N1CCN(C(=O)N1[C@H](C)CN(CC3CCN(c4ccc5c(c4)C(=O)N([C@H]4CCC(=O)NC4=O)C5)CC3)C[C@H]1C)C2` (single isomer, unassigned) [Example 75], on SMARCA4, the DC50 was less than 100 nM and the Dmax lay in the range of 50 to 75%. On SMARCA2, the DC50 is less than 100 nM and the maximal degradation (Dmax) was more than 75%.

At SMARCA4, `C[C@@H]1CN(C[C@H]2CCN(c3ccc4c(c3)C(=O)N(C3CCC(=O)NC3=O)C4)C[C@@H]2F)C[C@H](C)N1C(=O)N1CCN2c3cc(-c4cccc(F)c4O)nnc3NC[C@H]2C1` (single isomer, unassigned) [Example 44] registered a DC50 of less than 100 nM and a Dmax of less than 50%. At SMARCA2, the DC50 is less than 100 nM and the Dmax is more than 75%.

For the compound `CC1(C)CN(CC2CCN(c3ccc4c(c3)C(=O)N(C3CCC(=O)NC3=O)C4)CC2)CCN1C(=O)N1CCN2c3cc(-c4cccc(F)c4O)nnc3NC[C@H]2C1` (stereo partly drawn) [Example 5, 3-(6-(4-((4-((S)-2-(3-fluoro-2-hydroxyphenyl)-6,6a,7,8,9,10-hexahydro-5H-pyrazino[1′,2′:4,5]pyrazino[2,3-c]pyridazine-8-carbonyl)-3,3-dimethylpiperazin-1-yl)methyl)piperidin-1-yl)-1-oxoisoindolin-2-yl)piperidine-2,6-dione], the DC50 on SMARCA4 and at SMARCA2 was less than 100 nM each time. In addition, the Dmax at SMARCA4 is less than 50%; on SMARCA2, more than 75%.

In the case of `CCC12CNc3nnc(-c4cccc(F)c4O)cc3N1CCN(C(=O)N1[C@H](C)CN(CC3CCN(c4ccc5c(c4)C(=O)N(C4CCC(=O)NC4=O)C5)CC3)C[C@H]1C)C2` (single isomer, unassigned) [Example 83], at SMARCA4, the DC50 is less than 100 nM and the “SMARCA4 DMax %” value was “B (B=50%<Dmax≤75%)”. Further, at SMARCA2, the “SMARCA2 DMax %” value is reported as “A (A=Dmax>75%)” and the DC50 is less than 100 nM.

On SMARCA4, `C[C@H]1CN2c3cc(-c4cc(F)cc(F)c4O)nnc3NC[C@H]2CN1C[C@H]1[C@@H]2CN(C[C@H]3CCN(c4ccc5c(c4)C(=O)N(C4CCC(=O)NC4=O)C5)C[C@@H]3F)C[C@@H]21` (single isomer, unassigned) [Example 39] displayed a DC50 of less than 100 nM and a Dmax of less than 50%. In addition, on SMARCA2, the DC50 is less than 100 nM and the Dmax was more than 75%.

On SMARCA4, `C[C@@H]1CN(CC2CCN(c3ccc4c(c3)C(=O)N(C3CCC(=O)NC3=O)C4)CC2)C[C@@H](C)N1C(=O)N1CCN2c3cc(-c4cc(F)cc(F)c4O)nnc3NCC2(C)C1` (stereo partly drawn) [Example 33, 3-(6-(4-(((3R,5R)-4-(2-(3,5-difluoro-2-hydroxyphenyl)-6a-methyl-6,6a,7,8,9,10-hexahydro-5H-pyrazino[1′,2′:4,5]pyrazino[2,3-c]pyridazine-8-carbonyl)-3,5-dimethylpiperazin-1-yl)methyl)piperidin-1-yl)-1-oxoisoindolin-2-yl)piperidine-2,6-dione] showed a DC50 of less than 100 nM and a Dmax of more than 75%. On SMARCA2, the DC50 is less than 100 nM and the Dmax was more than 75%.

`CC1(C)CN(CC2CCN(c3ccc4c(c3)C(=O)N(C3CCC(=O)NC3=O)C4=O)CC2)CCN1C(=O)N1CCN2c3cc(-c4cccc(F)c4O)nnc3NCC2(C)C1` (mixture of isomers) [Example 7, 2-(2,6-dioxopiperidin-3-yl)-5-(4-((4-(2-(3-fluoro-2-hydroxyphenyl)-6a-methyl-6,6a,7,8,9,10-hexahydro-5H-pyrazino[1′,2′:4,5]pyrazino[2,3-c]pyridazine-8-carbonyl)-3,3-dimethylpiperazin-1-yl)methyl)piperidin-1-yl)isoindoline-1,3-dione]: at SMARCA4, the DC50 is less than 100 nM and the Dmax is 50 to 75%. On SMARCA2, the DC50 was less than 100 nM and the Dmax is more than 75%.

On to `CCC12CNc3nnc(-c4cccc(F)c4O)cc3N1CCN(C(=O)N1CCN(CC3CCN(c4ccc5c(c4)C(=O)N(C4CCC(=O)NC4=O)C5)CC3)CC1(C)C)C2` (single isomer, unassigned) [Example 80, 3-(6-(4-((4-(6a-ethyl-2-(3-fluoro-2-hydroxyphenyl)-6,6a,7,8,9,10-hexahydro-5H-pyrazino-[1′,2′:4,5]pyrazino[2,3-c]pyridazine-8-carbonyl)-3,3-dimethylpiperazin-1-yl)methyl)-piperidin-1-yl)-1-oxoisoindolin-2-yl)piperidine-2,6-dione], for which, at SMARCA4, the DC50 is less than 100 nM and the “SMARCA4 DMax %” value was “B (B=50%<Dmax≤75%)”. Moreover, on SMARCA2, the “SMARCA2 DMax %” value is given as “A (A=Dmax>75%)” and the DC50 was less than 100 nM.

`C[C@H]1CN(CC2CCN(c3ccc4c(c3)C(=O)N(C3CCC(=O)NC3=O)C4)CC2)C[C@H](C)N1C(=O)N1CCN2c3cc(-c4cc(F)cc(F)c4O)nnc3NC[C@H]2C1` (stereo partly drawn) [Example 47, 3-(6-(4-(((3S,5S)-4-((S)-2-(3,5-difluoro-2-hydroxyphenyl)-6,6a,7,8,9,10-hexahydro-5H-pyrazino[1′,2′:4,5]pyrazino[2,3-c]pyridazine-8-carbonyl)-3,5-dimethylpiperazin-1-yl)methyl)piperidin-1-yl)-1-oxoisoindolin-2-yl)piperidine-2,6-dione]: at SMARCA4, the DC50 was less than 100 nM and the Dmax was 50 to 75%. In addition, at SMARCA2, the DC50 is less than 100 nM and the Dmax is more than 75%.

As to `C[C@@H]1CN(CC2CCN(c3ccc4c(c3)C(=O)N(C3CCC(=O)NC3=O)C4)CC2)C[C@@H](C)N1C(=O)N1CCN2c3cc(-c4cc(F)cc(F)c4O)nnc3NCC2(C)C1` (single isomer, unassigned) [Example 28], on SMARCA4, the DC50 is less than 100 nM and the Dmax was less than 50%. Further, at SMARCA2, the DC50 is less than 100 nM and the Dmax was more than 75%.
